Measurements taken from ChEMBL document CHEMBL1687921, “Natural product-based phenols as novel probes for mycobacterial and fungal carbonic anhydrases” (J Med Chem, 2011).
pKi: −log10 of the molar value.

How the values were obtained:
[1] = target: T1, Beta-carbonic anhydrase 1 (Mycobacterium tuberculosis, UniProt P9WPJ7)
T1 sequence (P9WPJ7 whole entry): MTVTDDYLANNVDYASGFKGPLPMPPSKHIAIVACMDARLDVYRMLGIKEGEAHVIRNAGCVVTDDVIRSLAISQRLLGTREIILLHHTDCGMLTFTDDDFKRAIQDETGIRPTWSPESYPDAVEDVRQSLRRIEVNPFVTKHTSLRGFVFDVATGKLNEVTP
Description: Inhibition of Mycobacterium tuberculosis recombinant Rv1284 beta-carbonic anhydrase after 15 mins by stopped flow CO2 hydration assay

[2] = target: T2, Carbonic anhydrase (Candida albicans (strain SC5314 / ATCC MYA-2876) (Yeast), UniProt Q5AJ71)
T2 sequence (Q5AJ71 whole entry): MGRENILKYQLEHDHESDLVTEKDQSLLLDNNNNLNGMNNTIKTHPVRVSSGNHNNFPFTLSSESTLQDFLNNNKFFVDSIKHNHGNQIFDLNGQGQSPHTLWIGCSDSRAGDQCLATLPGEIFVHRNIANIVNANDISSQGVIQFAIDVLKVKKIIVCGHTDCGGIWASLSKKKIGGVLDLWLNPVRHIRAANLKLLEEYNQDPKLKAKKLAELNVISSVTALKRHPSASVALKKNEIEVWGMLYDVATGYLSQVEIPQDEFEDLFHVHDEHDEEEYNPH
Description: Inhibition of Candida albicans recombinant Nce103 beta-carbonic anhydrase after 15 mins by stopped flow CO2 hydration assay

[3] = target: T3, Carbonic anhydrase 2 (Cryptococcus neoformans, UniProt Q3I4V7)
T3 sequence (Q3I4V7 whole entry): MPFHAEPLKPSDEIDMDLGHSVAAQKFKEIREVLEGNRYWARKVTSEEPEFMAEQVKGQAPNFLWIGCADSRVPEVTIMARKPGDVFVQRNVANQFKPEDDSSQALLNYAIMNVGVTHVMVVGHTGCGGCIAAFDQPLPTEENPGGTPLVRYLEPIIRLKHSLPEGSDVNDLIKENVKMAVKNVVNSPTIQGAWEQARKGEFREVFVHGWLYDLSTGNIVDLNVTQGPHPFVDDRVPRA
Description: Inhibition of Cryptococcus neoformans recombinant Can2 beta-carbonic anhydrase after 15 mins by stopped flow CO2 hydration assay

[4] = target: T4, PROBABLE TRANSMEMBRANE CARBONIC ANHYDRASE (CARBONATE DEHYDRATASE) (CARBONIC DEHYDRATASE) (Mycobacterium tuberculosis, UniProt P96878)
T4 sequence (P96878 whole entry): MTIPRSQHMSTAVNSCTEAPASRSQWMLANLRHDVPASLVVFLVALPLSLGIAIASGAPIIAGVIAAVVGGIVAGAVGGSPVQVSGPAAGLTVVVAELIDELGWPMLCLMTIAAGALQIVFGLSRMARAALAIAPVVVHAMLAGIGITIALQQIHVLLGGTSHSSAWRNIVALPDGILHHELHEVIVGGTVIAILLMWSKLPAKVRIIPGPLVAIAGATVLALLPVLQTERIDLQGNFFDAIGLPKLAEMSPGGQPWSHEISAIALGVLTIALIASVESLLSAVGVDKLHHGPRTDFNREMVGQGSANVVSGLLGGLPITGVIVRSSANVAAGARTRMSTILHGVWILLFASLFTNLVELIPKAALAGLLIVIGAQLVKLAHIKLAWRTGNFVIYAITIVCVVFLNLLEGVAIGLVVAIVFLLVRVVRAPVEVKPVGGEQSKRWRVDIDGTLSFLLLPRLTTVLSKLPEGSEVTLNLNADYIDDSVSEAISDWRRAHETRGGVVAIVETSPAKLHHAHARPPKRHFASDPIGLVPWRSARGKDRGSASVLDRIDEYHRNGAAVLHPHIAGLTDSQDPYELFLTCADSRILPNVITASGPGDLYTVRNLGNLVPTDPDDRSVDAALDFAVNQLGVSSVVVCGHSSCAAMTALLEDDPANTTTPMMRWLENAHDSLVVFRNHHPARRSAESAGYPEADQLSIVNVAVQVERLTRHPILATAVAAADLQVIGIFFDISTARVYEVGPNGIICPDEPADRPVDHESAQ
Description: Inhibition of Mycobacterium tuberculosis recombinant Rv3273 beta-carbonic anhydrase after 15 mins by stopped flow CO2 hydration assay

[5] = target: Carbonic anhydrase 1 (Homo sapiens, UniProt P00915)
Chain of Carbonic anhydrase 1 (P00915 whole entry): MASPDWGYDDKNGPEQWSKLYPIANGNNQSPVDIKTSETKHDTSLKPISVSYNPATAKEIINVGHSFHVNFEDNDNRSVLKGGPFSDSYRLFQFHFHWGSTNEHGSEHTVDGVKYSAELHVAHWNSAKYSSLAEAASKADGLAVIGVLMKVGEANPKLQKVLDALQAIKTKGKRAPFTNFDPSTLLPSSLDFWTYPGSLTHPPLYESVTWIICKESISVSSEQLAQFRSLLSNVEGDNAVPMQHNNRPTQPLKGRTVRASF
Description: Inhibition of human recombinant alpha-carbonic anhydrase 1 after 15 mins by stopped flow CO2 hydration assay

[6] = target: Carbonic anhydrase 2 (Homo sapiens, UniProt P00918)
Description: Inhibition of human recombinant alpha-carbonic anhydrase 2 after 15 mins by stopped flow CO2 hydration assay

[7] = target: T5, Beta-carbonic anhydrase 1 (Mycobacterium tuberculosis) (UniProt P9WPJ7)
T5 sequence (whole entry): T1 sequence (P9WPJ7 whole entry)

| SMILES | pKi [1] | pKi [2] | pKi [3] | pKi [4] | pKi [5] | pKi [6] | fold change (FC) [7] |
| --- | --- | --- | --- | --- | --- | --- | --- |
| COc1cc(C)cc2oc3ccc(O)c(C(=O)O)c3c(=O)c12 | 4.98 | 5.97 | 5.95 | 4.94 |  |  |  |
| COc1cc(/C=C2\N=C(N)NC2=O)ccc1O [POLYANDROCARPAMINE A] | 4.93 | 6.04 | 6.05 | 6.04 | 4.98 | 5.02 |  |
| COc1cc(CO)cc2oc3ccc(O)c(C(=O)O)c3c(=O)c12 | 6.00 | 6.00 | 5.97 | 4.96 |  |  |  |
| COC(=O)/C=C/C(=O)N[C@@H](Cc1ccc(O)c(Cl)c1)C(=O)O [(+)-XYLARIAMIDE A] | 6.15 | 5.97 | 5.95 | 4.96 |  |  |  |
| COC(=O)/C=C/C(=O)N[C@H](Cc1ccc(O)c(Cl)c1)C(=O)O [(-)-XYLARIAMIDE A] | 6.08 | 5.99 | 5.94 | 4.95 |  |  |  |
| Oc1ccccc1 [PHENOL] | 4.19 | 4.76 | 4.59 | 4.10 |  |  |  |
| CCCCNC(=O)Cc1ccc(O)c(Cl)c1 | 4.94 | 6.09 | 6.14 | 4.98 | 4.97 | 5.03 |  |
| NC1=N/C(=C\c2ccc(O)c(O)c2)C(=O)N1 [POLYANDROCARPAMINE B] | 6.04 | 6.05 | 6.02 | 6.04 |  |  |  |
| COCCNC(=O)Cc1ccc(O)c(Cl)c1 | 4.96 | 6.00 | 6.02 | 5.94 | 3.80 | 4.98 |  |
| COc1cc([C@@H]2[C@@H](C)[C@H](C)[C@H]2c2ccc(O)c(OC)c2)ccc1O [ENDIANDRIN A] | 6.09 | 6.14 | 6.11 | 5.05 | 3.43 | 4.93 |  |
| CC(C)(C)NC(=O)Cc1ccc(O)c(Cl)c1 | 4.91 | 6.02 | 6.04 | 4.99 |  |  |  |
| COc1cc([C@@H]2[C@@H](C)[C@@H](C)[C@@H]2c2ccc(O)c(OC)c2)ccc1O [ENDIANDRIN B] | 6.10 | 6.15 | 6.02 | 6.05 | 3.45 | 4.92 |  |
| NC(=O)Cc1ccc(O)c(Cl)c1 | 4.98 | 6.00 | 6.07 | 4.95 |  |  |  |
| NS(=O)(=O)Cc1noc2ccccc12 [ZONISAMIDE] | 3.54 |  |  |  |  |  |  |
| NS(=O)(=O)c1ccc(CCNC(=O)Cc2ccc(O)c(Cl)c2)cc1 | 5.94 | 6.10 | 6.13 | 6.07 |  |  |  |
| CC1(C)O[C@@H]2[C@@H](CO[C@@]3(COS(N)(=O)=O)OC(C)(C)O[C@@H]23)O1 [TOPIRAMATE] |  |  |  | 5.52 |  |  |  |
| Nc1ccc(S(N)(=O)=O)cc1 [SULFANILAMIDE] |  |  |  | 5.15 |  |  |  |
| COc1cccc(CCNC(=O)Cc2ccc(O)c(Cl)c2)c1 | 5.90 | 6.14 | 6.03 | 6.04 |  |  |  |
| O=C(Cc1ccc(O)c(Cl)c1)NCCc1ccccc1 | 6.10 | 6.03 | 6.09 | 6.01 | 5.02 | 5.01 |  |
| NC(=O)Cc1ccc(O)cc1 | 6.07 | 6.04 | 6.08 | 5.04 |  |  |  |
| COc1ccc(CCNC(=O)Cc2ccc(O)c(Cl)c2)cc1OC | 5.75 | 6.12 | 6.07 | 6.05 |  |  |  |
| OCCc1ccc(O)cc1 [TYROSOL] | 6.07 | 5.96 | 5.97 | 4.92 | 3.37 | 5.06 | 75 |
| O=C(O)Cc1ccc(O)cc1 | 4.97 | 5.99 | 6.05 | 4.94 | 3.51 | 4.99 |  |
| O=C(O)Cc1ccc(O)c(Cl)c1 | 4.99 | 5.97 | 5.95 | 4.97 |  |  |  |
| O=C(Cc1ccc(O)c(Cl)c1)NCc1ccccc1 | 4.91 | 6.11 | 6.14 | 6.01 | 4.98 | 4.94 |  |
| COc1cc(C[C@@H](C)[C@H](C)Cc2ccc(O)c(OC)c2)ccc1O [(-)-DIHYDROGUAIARETICACID] | 6.07 | 6.21 | 6.09 | 5.04 | 3.51 | 3.64 |  |
